The test has as its target BACE (Homo sapiens, UniProt P56817). As to the kind of experiment: Ki Determination for the Inhibition of BACE (FS-1 peptide fluorescence cleavage assay). Format: biochemical. The note with it: apparent Ki; 50 nM BACE, 10 μM FS-1 substrate, 0.1M sodium acetate pH 4.5. On the procedure:
Compounds were tested against BACE activity using the following modifications of the method described in J. Ermolieff et al. (2000) Biochemistry 39(51):16263.
All compound evaluations were performed in 0.1M sodium acetate (buffer), pH, 4.5, 10 μM substrate (FS-1 peptide as described in the reference above; this is commercially available), varying concentrations of the test compound or control (DMSO to yeild 2% vol/vol), and 50 nM BACE. The assay volume is 100 μL.
Two microliters of the test compound dissolved in DMSO are added to each well in a 96-well microtiter plate. Seventy eight microliters of BACE are mixed with buffer and added to each well then incubated at room temperature for 15 minutes. A stock solution of 50 μM FS-1 substrate was prepared by addition of an aliquot of FS-1 substrate which was dissolved in DMSO to the buffer and mixed well. The reaction is initiated by addition of 20 μL of the FS-1 mix to the remaining, preincubated assay components. The cleavage reaction of substrate to product is measured using a Molecular Devices fluorescence plate reader with the excitation and emission filter pairs of 355 nm and 495 nm, respectively. Apparent Ki values are determined by fitting the data to the integrated equation for competitive tight binding inhibition.

Data on 36 molecules can be found in patent publication US20030095958A1, “Inhibitors of bace” (priority 2001, published 2003).

Where only a bound is given, the exact number is not on record here.

Sequence of BACE (P56817 46-501): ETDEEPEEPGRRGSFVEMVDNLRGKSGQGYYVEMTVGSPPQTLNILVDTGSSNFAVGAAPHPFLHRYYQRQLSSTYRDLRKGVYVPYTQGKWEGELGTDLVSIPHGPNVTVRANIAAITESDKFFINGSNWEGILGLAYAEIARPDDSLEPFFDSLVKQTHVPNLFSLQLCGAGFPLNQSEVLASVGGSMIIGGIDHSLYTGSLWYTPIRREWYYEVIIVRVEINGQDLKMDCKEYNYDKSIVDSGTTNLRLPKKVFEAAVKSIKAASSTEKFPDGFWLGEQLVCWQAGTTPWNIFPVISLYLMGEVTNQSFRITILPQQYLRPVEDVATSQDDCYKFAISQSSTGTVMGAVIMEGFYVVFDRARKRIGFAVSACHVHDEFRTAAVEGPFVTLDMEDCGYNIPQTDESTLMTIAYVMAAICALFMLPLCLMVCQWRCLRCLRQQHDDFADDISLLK

As to `FC(F)(F)c1ccc(N2CCNCC2)c(NCc2ccc3ccccc3c2)c1` [Compound 100, Naphthalen-2-ylmethyl-(2-piperazin-1-yl-5-trifluoromethyl-phenyl)-amine], the Ki fell in the range of 3 to 30 µM.

Turning to `O=C(Nc1cc(C(F)(F)F)ccc1N1CCNCC1)c1ccc(F)c2ccccc12` [Compound 101, 4-Fluoro-naphthalene-1-carboxylic acid (2-piperazin-1-yl-5-trifluoromethyl-phenyl)-amide], the Ki was over 30 µM.

On to `O=C(Nc1cc(C(F)(F)F)ccc1N1CCNCC1)c1nccc2ccccc12` [Compound 102, Isoquinoline-1-carboxylic acid (2-piperazin-1-yl-5-trifluoromethyl-phenyl)-amide], for which the Ki lay within 3 to 30 µM.

With `O=C(Nc1cc(-c2ccc(F)cc2)ccc1N1CCNCC1)c1cccc2ccccc12` [Compound 103, Naphthalene-1-carboxylic acid (4′-fluoro-4-piperazin-1-yl-biphenyl-3-yl)-amide], the Ki is 3 to 30 µM.

Consider `O=C(Nc1cc(-c2ccc(F)c(Cl)c2)ccc1N1CCNCC1)c1cccc2ccccc12` [Compound 104, Naphthalene-1-carboxylic acid (3′-chloro-4′-fluoro-4-piperazin-1-yl-biphenyl-3-yl)-amide], for which the Ki is under 3 µM.

For the molecule `O=Cc1cc(-c2ccc(N3CCNCC3)c(NC(=O)c3cccc4ccccc34)c2)ccc1F` [Compound 105, Naphthalene-1-carboxylic acid (4′-fluoro-3′-formyl-4-piperazin-1-yl-biphenyl-3-yl)-amide], the Ki fell in the range of 3 to 30 µM.

With `O=C(Nc1cc(-c2cccc(Cl)c2Cl)ccc1N1CCNCC1)c1cccc2ccccc12` [Compound 106, Naphthalene-1-carboxylic acid (2′,3′-dichloro-4-piperazin-1-yl-biphenyl-3-yl)-amide], the Ki is under 3 µM.

For the molecule `O=C(Nc1cc(-c2ccc(Cl)cc2Cl)ccc1N1CCNCC1)c1cccc2ccccc12` [Compound 107, Naphthalene-1-carboxylic acid (2′,4′-dichloro-4-piperazin-1-yl-biphenyl-3-yl)-amide], the Ki is under 3 µM.

As for `O=C(Nc1cc(-c2cc(Cl)ccc2Cl)ccc1N1CCNCC1)c1cccc2ccccc12` [Compound 108, Naphthalene-1-carboxylic acid (2′,5′-dichloro-4-piperazin-1-yl-biphenyl-3-yl)-amide], the Ki was under 3 µM.

For `O=C(Nc1cc(-c2cc(Cl)cc(Cl)c2Cl)ccc1N1CCNCC1)c1cccc2ccccc12` [Compound 109, Naphthalene-1-carboxylic acid (2′,3′,5′-trichloro-4-piperazin-1-yl-biphenyl-3-yl)-amide], the Ki was under 3 µM.

With `O=C(Nc1cc(-c2cccnc2)ccc1N1CCNCC1)c1cccc2ccccc12` [Compound 110, Naphthalene-1-carboxylic acid (2-piperazin-1-yl-5-pyridin-3-yl-phenyl)-amide], the Ki lay within 3 to 30 µM.

With `O=C(Nc1cc(-c2ccncc2)ccc1N1CCNCC1)c1cccc2ccccc12` [Compound 111, Naphthalene-1-carboxylic acid (2-piperazin-1-yl-5-pyridin-4-yl-phenyl)-amide], the Ki was in the range of 3 to 30 µM.

Turning to `Cc1cc(N2CCNCC2)c(NC(=O)c2cccc3ccccc23)cc1Br` [Compound 112, Naphthalene-1-carboxylic acid (5-bromo-4-methyl-2-piperazin-1-yl-phenyl)-amide], the Ki is over 30 µM.

Consider `O=C(Nc1cc(C(F)(F)F)ccc1N1CCNCC1)c1ccc2ccccc2c1` [Compound 113, Naphthalene-2-carboxylic acid (2-piperazin-1-yl-5-trifluoromethyl-phenyl)-amide], for which the Ki lay in the range of 3 to 30 µM.

Regarding `O=C(Nc1cc(C(F)(F)F)ccc1N1CCNCC1)c1cccc2ccccc12` [Compound 114, Naphthalene-1-carboxylic acid (2-piperazin-1-yl-5-trifluoromethyl-phenyl)-amide], the Ki was 3 to 30 µM.

Consider `O=C(Nc1cc(C(F)(F)F)cc(NC(=O)c2ccc3ccccc3c2)c1N1CCNCC1)c1ccc2ccccc2c1` [Compound 115, 4-{2,6-Bis-[(naphthalene-2-carbonyl)-amino]-4-trifluoromethyl-phenyl}-piperazine], for which the Ki lay in the range of 3 to 30 µM.

`FC(F)(F)c1ccccc1OCc1ccc(COc2ccccc2C(F)(F)F)c(N2CCNCC2)c1` [Compound 116, 1-[2,5-Bis-(2-trifluoromethyl-phenoxymethyl)-phenyl]-piperazine]: the Ki was under 3 µM.

Consider `CC(C)(C)c1ccc(C(=O)Nc2cc(C(F)(F)F)ccc2N2CCNCC2)cc1` [Compound 117, 4-tert-Butyl-N-(2-piperazin-1-yl-5-trifluoromethyl-phenyl)-benzamide], for which the Ki is over 30 µM.

Take `O=C(Nc1cc(Br)ccc1N1CCNCC1)c1cccc2ccccc12` [Compound 118, Naphthalene-1-carboxylic acid (5-bromo-2-piperazin-1-yl-phenyl)-amide]: the Ki was over 30 µM.

In the case of `COc1cccc(-c2ccc(N3CCNCC3)c(NC(=O)c3cccc4ccccc34)c2)c1` [Compound 119, Naphthalene-1-carboxylic acid (3′-methoxy-4-piperazin-1-yl-biphenyl-3-yl)-amide], the Ki is over 30 µM.

As to `COc1ccc(-c2ccc(N3CCNCC3)c(NC(=O)c3cccc4ccccc34)c2)cc1` [Compound 120, Naphthalene-1-carboxylic acid (4′-methoxy-4-piperazin-1-yl-biphenyl-3-yl)-amide], the Ki was 3 to 30 µM.

Regarding `O=C(Nc1cc(-c2ccc(Cl)cc2)ccc1N1CCNCC1)c1cccc2ccccc12` [Compound 121, Naphthalene-1-carboxylic acid (4′-chloro-4-piperazin-1-yl-biphenyl-3-yl)-amide], the Ki fell in the range of 3 to 30 µM.

In the case of `O=C(Nc1cc(-c2ccccc2Cl)ccc1N1CCNCC1)c1cccc2ccccc12` [Compound 122, Naphthalene-1-carboxylic acid (2′-chloro-4-piperazin-1-yl-biphenyl-3-yl)-amide], the Ki lay within 3 to 30 µM.

Consider `O=C(Nc1cc(-c2cccc(Cl)c2)ccc1N1CCNCC1)c1cccc2ccccc12` [Compound 123, Naphthalene-1-carboxylic acid (3′-chloro-4-piperazin-1-yl-biphenyl-3-yl)-amide], for which the Ki was in the range of 3 to 30 µM.

On to `Cc1ccc(-c2ccc(N3CCNCC3)c(NC(=O)c3cccc4ccccc34)c2)cc1` [Compound 124, Naphthalene-1-carboxylic acid (4′-methyl-4-piperazin-1-yl-biphenyl-3-yl)-amide], for which the Ki was 3 to 30 µM.

`O=C(Nc1cc(COc2ccccc2C(F)(F)F)ccc1N1CCNCC1)c1cccc2ccccc12` [Compound 125, Naphthalene-1-carboxylic acid [2-piperazin-1-yl-5-(2-trifluoromethyl-phenoxymethyl)-phenyl]-amide]: the Ki is 3 to 30 µM.

As to `Cc1cccc(-c2ccc(N3CCNCC3)c(NC(=O)c3cccc4ccccc34)c2)c1` [Compound 126, Naphthalene-1-carboxylic acid (3′-methyl-4-piperazin-1-yl-biphenyl-3-yl)-amide], the Ki was 3 to 30 µM.

As for `O=C(Nc1cc(C(F)(F)F)cc(NC(=O)c2cccc3ccccc23)c1N1CCNCC1)c1cccc2ccccc12` [Compound 127, 4-{2,6-Bis-[(naphthalene-1-carbonyl)-amino]-4-trifluoromethyl-phenyl}-piperazine], the Ki was 3 to 30 µM.

As for `O=C(Nc1cc(-c2cccc(C(F)(F)F)c2)ccc1N1CCNCC1)c1cccc2ccccc12` [Compound 128, Naphthalene-1-carboxylic acid (4-piperazin-1-yl-3′-trifluoromethyl-biphenyl-3-yl)-amide], the Ki was 3 to 30 µM.

For `O=C(Nc1cc(-c2ccc(C(F)(F)F)cc2)ccc1N1CCNCC1)c1cccc2ccccc12` [Compound 129, Naphthalene-1-carboxylic acid (4-piperazin-1-yl-4′-trifluoromethyl-biphenyl-3-yl)-amide], the Ki was under 3 µM.

Take `O=C(Nc1cc(-c2ccc(Cl)c(Cl)c2)ccc1N1CCNCC1)c1cccc2ccccc12` [Compound 130, Naphthalene-1-carboxylic acid (3′,4′-dichloro-4-piperazin-1-yl-biphenyl-3-yl)-amide]: the Ki is under 3 µM.

With `N#Cc1ccc(-c2ccc(N3CCNCC3)c(NC(=O)c3cccc4ccccc34)c2)cc1` [Compound 131, Naphthalene-1-carboxylic acid (4′-cyano-4-piperazin-1-yl-biphenyl-3-yl)-amide], the Ki lay within 3 to 30 µM.

Turning to `O=C(Nc1cc(Oc2ccccc2)ccc1N1CCNCC1)c1cccc2ccccc12` [Compound 132, Naphthalene-1-carboxylic acid (5-phenoxy-2-piperazin-1-yl-phenyl)-amide], the Ki was in the range of 3 to 30 µM.

`O=C(Nc1cc(Oc2ccc(Cl)cc2)ccc1N1CCNCC1)c1cccc2ccccc12` [Compound 133, Naphthalene-1-carboxylic acid [5-(4-chloro-phenoxy)-2-piperazin-1-yl-phenyl]-amide]: the Ki was in the range of 3 to 30 µM.

Turning to `O=C(Cc1cccc2ccccc12)Nc1cc(C(F)(F)F)ccc1N1CCNCC1` [Compound 134, 2-Naphthalen-1-yl-N-(2-piperazin-1-yl-5-trifluoromethyl-phenyl)-acetamide], the Ki was over 30 µM.

For the molecule `O=S(=O)(Nc1cc(C(F)(F)F)ccc1N1CCNCC1)c1cccc2ccccc12` [Compound 135, Naphthalene-1-sulfonic acid (2-piperazin-1-yl-5-trifluoromethyl-phenyl)-amide], the Ki is over 30 µM.
